According to ChEMBL document CHEMBL1155679, “New xenicane diterpenoids from the gorgonian Acalycigorgia inermis” (2000):
Values after ≈ are worked out from the molar mass of the structure shown.

tested on: K562; assay: Cytotoxicity against human K562 cells; format: functional; settings: read-out: LC50 (the source's name)

Row | SMILES | CC50
1 | C=C1CC[C@@H]2O[C@@]2(C)CC[C@@H]2[C@H](CCC=C(C)C)C(=O)OC[C@@H]12 [ACALYCIXENIOLIDE F] | 0.2 µg/mL (≈ 0.628 µM)
2 | C=C=CCC(OC(C)=O)C1=CO[C@H](OC(C)=O)[C@H]2C(=C)CC[C@@H]3O[C@@]3(C)CC[C@H]12 (some centres undefined) [ACALYCIXENIOLIDE E] | 4.7 µg/mL (≈ 11.7 µM)
3 | C=C=CC/C=C1/C(=O)OC[C@H]2C(=C)CC[C@@H]3O[C@@]3(C)CC[C@H]12 [ACALYCIXENIOLIDE D] | 52 µg/mL (≈ 173 µM)
4 | C=C=CCC[C@@H]1C(=O)OC[C@H]2C(=C)CC[C@@H]3O[C@@]3(C)CC[C@H]12 [ACALYCIXENIOLIDE C] | 1.6 µg/mL (≈ 5.29 µM)
